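48-hour exposure; five concentrations; linearly interpolated endpoints. GI50 marks 50% less growth.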 Calls of active or inactive are those of the source. No stated cut-off is given here; in the data, active = GI50 up to about 1.1 µM and inactive = higher.
Assays:
Assay in all cases: NCI anticancer screen, dose series, 48 h
HL-60 = test system: HL-60
SW-620 = test system: SW-620
OVCAR-3 = test system: OVCAR-3
NCI-H522 = test system: NCI-H522
M14 = test system: M14
LOX IMVI = test system: LOX IMVI
TK-10 = test system: TK-10
NCI-H460 = test system: NCI-H460
Malme-3M = test system: Malme-3M
IGROV-1 = test system: IGROV-1
HCT-116 = test system: HCT-116
OVCAR-4 = test system: OVCAR-4
SK-MEL-5 = test system: SK-MEL-5
SF-295 = test system: SF-295
SR = test system: SR

SMILES | GI50 (HL-60) | GI50 (SW-620) | GI50 (OVCAR-3) | GI50 (NCI-H522) | GI50 (M14) | GI50 (LOX IMVI) | GI50 (TK-10) | GI50 (NCI-H460) | GI50 (Malme-3M) | GI50 (IGROV-1) | GI50 (HCT-116) | GI50 (OVCAR-4) | GI50 (SK-MEL-5) | GI50 (SF-295) | GI50 (SR)
O=C(O)c1c(CC(Cc2ccc3c(c2)CCC3)C(=O)O)ccc2c1CCC2 (centres undefined) | > 100 µM (inactive) | > 100 µM (inactive) | > 100 µM (inactive) | > 100 µM (inactive) | > 100 µM (inactive) | > 100 µM (inactive) | > 100 µM (inactive) | > 100 µM (inactive) | > 100 µM (inactive) | > 100 µM (inactive) | > 100 µM (inactive) | > 100 µM (inactive) | > 100 µM (inactive) | > 100 µM (inactive) | > 100 µM (inactive)
O=C(CCCN1CCC2(CC1)OC(=O)N(c1ccccc1)C2=O)c1ccccc1 | > 100 µM (inactive) | > 100 µM (inactive) | > 100 µM (inactive) | > 100 µM (inactive) | > 100 µM (inactive) | > 100 µM (inactive) | > 100 µM (inactive) | > 100 µM (inactive) | > 100 µM (inactive) | > 100 µM (inactive) | > 100 µM (inactive) | > 100 µM (inactive) | > 100 µM (inactive) | > 100 µM (inactive) | > 100 µM (inactive)
CC(C)=CC[S+]([O-])c1ccccc1NC1=CC(=O)CC(C)(C)C1 (centres undefined) | > 100 µM (inactive) | > 100 µM (inactive) | > 100 µM (inactive) | > 100 µM (inactive) | > 100 µM (inactive) | > 100 µM (inactive) | > 100 µM (inactive) | > 100 µM (inactive) | > 100 µM (inactive) | > 100 µM (inactive) | > 100 µM (inactive) | > 100 µM (inactive) | > 100 µM (inactive) |  | > 100 µM (inactive)
CC1OC(O)CC(N(C)C)C1O.CC1OC(O)CCC1O.CCC1CC(O)c2c(O)c3c(c(O)c2C1O)C(=O)c1cccc(O)c1C3=O (centres undefined) | 0.0305 µM (active) | 0.014 µM (active) | 0.021 µM (active) | 0.0121 µM (active) | 0.0188 µM (active) | 0.0135 µM (active) | 0.0208 µM (active) | 0.00486 µM (active) | 0.021 µM (active) | 0.0284 µM (active) | 0.00771 µM (active) | 0.0203 µM (active) | 0.0177 µM (active) | 0.0323 µM (active) | 0.0083 µM (active)
CC(=O)OC(C)c1cc2c(s1)C(=O)c1sccc1C2=O (centres undefined) | 1.74 µM (inactive) | 0.714 µM (active) | 0.604 µM (active) | 1.27 µM (inactive) | 0.14 µM (active) | 0.446 µM (active) | 1.85 µM (inactive) | 1.06 µM (active) | 0.21 µM (active) | 2.02 µM (inactive) | 1.46 µM (inactive) | 1.96 µM (inactive) | 0.139 µM (active) | 0.851 µM (active) | 0.51 µM (active)
Cc1ccc(C)c(C2NC(=O)c3ccccc3N2)c1 (centres undefined) | 0.118 µM (active) | 0.472 µM (active) | 0.265 µM (active) | 0.689 µM (active) | 0.719 µM (active) | 2.05 µM (inactive) | 6.82 µM (inactive) | 0.916 µM (active) | 0.668 µM (active) | 1.13 µM (inactive) | 0.601 µM (active) | 6.27 µM (inactive) | 0.335 µM (active) | 1.12 µM (inactive) | 0.555 µM (active)
CC(=O)OCC1(CNc2nc(N)ncc2C#N)CC(CCc2ccccc2)C1 (centres undefined) | 3.66 µM (inactive) | > 100 µM (inactive) |  | 20.2 µM (inactive) |  | 4.58 µM (inactive) | > 10 µM (inactive) | 26.8 µM (inactive) | > 100 µM (inactive) | 21.4 µM (inactive) | 5.43 µM (inactive) | > 100 µM (inactive) | 1.62 µM (inactive) | 7.66 µM (inactive) | 4.8 µM (inactive)
NCOC(=O)Cc1ccc(Br)cc1 | 42.3 µM (inactive) | > 100 µM (inactive) | > 100 µM (inactive) | > 100 µM (inactive) | > 100 µM (inactive) | > 100 µM (inactive) | > 100 µM (inactive) | > 100 µM (inactive) | > 100 µM (inactive) | > 100 µM (inactive) | > 100 µM (inactive) |  | > 100 µM (inactive) | > 100 µM (inactive) | 0.383 µM (active)
COc1ccc2c(O)c1-c1c(OC)ccc(c1O)SSc1ccc(OC)c(c1O)-c1c(OC)ccc(c1O)SS2 | 8.15 µM (inactive) | 16 µM (inactive) | 20.6 µM (inactive) | 3.58 µM (inactive) | > 100 µM (inactive) | 26.7 µM (inactive) | 65.8 µM (inactive) |  | 51.2 µM (inactive) | 23 µM (inactive) | 48.2 µM (inactive) | 12.1 µM (inactive) | 30 µM (inactive) | > 100 µM (inactive) | 4.27 µM (inactive)
CC1=C(Br)C(=O)c2c(O)ccc(O)c2C1=O | 0.0306 µM (active) | 0.163 µM (active) | 0.74 µM (active) | 0.153 µM (active) | 0.431 µM (active) | 0.55 µM (active) | 1.26 µM (inactive) | 1.26 µM (inactive) | 0.295 µM (active) | 1.59 µM (inactive) | 0.303 µM (active) | 0.857 µM (active) | 0.435 µM (active) | 1.67 µM (inactive) | 0.207 µM (active)
O=C1NC2(CCNCC2)Oc2ccccc21 | > 100 µM (inactive) | > 100 µM (inactive) | > 100 µM (inactive) | > 100 µM (inactive) | > 100 µM (inactive) | > 100 µM (inactive) | > 100 µM (inactive) | > 100 µM (inactive) | > 100 µM (inactive) | > 100 µM (inactive) | > 100 µM (inactive) | > 100 µM (inactive) | > 100 µM (inactive) | > 100 µM (inactive) | > 100 µM (inactive)
NC(Cc1ccc(CP(=O)(O)O)cc1)C(=O)O (centres undefined) | > 100 µM (inactive) | > 100 µM (inactive) | > 100 µM (inactive) | > 100 µM (inactive) | > 100 µM (inactive) | > 100 µM (inactive) | > 100 µM (inactive) | > 100 µM (inactive) |  | > 100 µM (inactive) | > 100 µM (inactive) | > 100 µM (inactive) | > 100 µM (inactive) | > 100 µM (inactive) | > 100 µM (inactive)
O=C(OC1C#CCSCC#C/C=C\1)c1ccc2c(c1)C(=O)c1ccccc1C2=O (centres undefined) | > 100 µM (inactive) | > 100 µM (inactive) | > 100 µM (inactive) | 23.8 µM (inactive) | 65.2 µM (inactive) | > 100 µM (inactive) | 27.9 µM (inactive) | > 100 µM (inactive) | > 100 µM (inactive) | 34.8 µM (inactive) | 36.5 µM (inactive) | > 100 µM (inactive) | 87.1 µM (inactive) | 28 µM (inactive) | 25.5 µM (inactive)
C/C(=C1/N=C(c2ccccc2)OC1=O)c1ccccc1 | 25.6 µM (inactive) | 57.5 µM (inactive) | 74.5 µM (inactive) | 85.3 µM (inactive) | > 100 µM (inactive) | 33.5 µM (inactive) | 87.3 µM (inactive) | > 100 µM (inactive) | 53.2 µM (inactive) | 68.2 µM (inactive) | > 100 µM (inactive) | > 100 µM (inactive) | > 100 µM (inactive) | 76.2 µM (inactive) | 39.5 µM (inactive)
COc1ccc(N[S+]([O-])C2CCCCC2)cc1 (centres undefined) | > 100 µM (inactive) | > 100 µM (inactive) | > 100 µM (inactive) | > 100 µM (inactive) | > 100 µM (inactive) | > 100 µM (inactive) | > 100 µM (inactive) | > 100 µM (inactive) | > 100 µM (inactive) | > 100 µM (inactive) | > 100 µM (inactive) |  | > 100 µM (inactive) | > 100 µM (inactive) | > 100 µM (inactive)
COC(=O)[C@H]1C=NN[C@@H]1C(=O)N1[C@H]2CC3CC[C@@]2(CS1(=O)=O)C3(C)C | > 100 µM (inactive) | > 100 µM (inactive) |  | > 100 µM (inactive) | > 100 µM (inactive) | > 100 µM (inactive) | > 100 µM (inactive) | > 100 µM (inactive) | > 100 µM (inactive) | > 100 µM (inactive) | > 100 µM (inactive) | > 100 µM (inactive) | > 100 µM (inactive) | > 100 µM (inactive) | > 100 µM (inactive)
Nc1nc(=O)c(/N=N/c2ccc([As](=O)(O)O)cc2)c(N)[nH]1 | > 100 µM (inactive) | > 100 µM (inactive) | > 100 µM (inactive) | > 100 µM (inactive) | > 100 µM (inactive) | > 100 µM (inactive) | > 100 µM (inactive) | > 100 µM (inactive) | > 100 µM (inactive) | > 100 µM (inactive) | > 100 µM (inactive) | > 100 µM (inactive) | > 100 µM (inactive) | > 100 µM (inactive) | > 100 µM (inactive)
CCOC(=O)NNC(=O)NCc1cccc(CNC(=O)NNC(=O)OCC)c1 | > 100 µM (inactive) | > 100 µM (inactive) | > 100 µM (inactive) | > 100 µM (inactive) | > 100 µM (inactive) | > 100 µM (inactive) | > 100 µM (inactive) | > 100 µM (inactive) | > 100 µM (inactive) |  | > 100 µM (inactive) | > 100 µM (inactive) | > 100 µM (inactive) |  | > 100 µM (inactive)
CC1=CC(=O)c2ccc(C)cc2C1=O [CHIMAPHILIN] | 1.98 µM (inactive) | 11.8 µM (inactive) | 11.8 µM (inactive) | 4.09 µM (inactive) | 16.3 µM (inactive) | 5.09 µM (inactive) | 19 µM (inactive) | 14.2 µM (inactive) |  | 15.1 µM (inactive) | 4.44 µM (inactive) | 16.7 µM (inactive) | 3.82 µM (inactive) | 17.2 µM (inactive) | 3.4 µM (inactive)

Source: ChEMBL document CHEMBL1201862, “PubChem BioAssay data set” (2004)
